From the supplement of paper PMC10290057 come the findings set out here.

Structures can show the parent of a compound that is named as a salt.
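Also: Luminescence-based viability readout, five doses per compound, normalized against on-plate DMSO and empty-well controls, followed by dose-response curve fitting for every drug.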

This assay has as its system HCT116. The experiment in a line: efficacy (fitted maximal change in viability relative to DMSO control); higher = less cytotoxic (negative = loss of viability). The settings on record: 48 h.
Turning to `CC(=O)N[C@H]1[C@H](O[C@@H]2c3ccc(c(Cl)c3)Oc3cc4cc(c3O[C@@H]3O[C@H](CO)[C@@H](O)[C@H](O)[C@H]3NC(=O)CCCCCCCC(C)C)Oc3ccc(cc3Cl)C[C@H]3NC(=O)[C@H](N)c5ccc(O)c(c5)Oc5cc(O)cc(c5)[C@H](NC3=O)C(=O)N[C@H]4C(=O)N[C@H]3C(=O)N[C@@H]2C(=O)N[C@@H](C(=O)O)c2cc(O)cc(O[C@H]4O[C@H](CO)[C@@H](O)[C@H](O)[C@@H]4O)c2-c2cc3ccc2O)O[C@H](CO)[C@@H](O)[C@@H]1O` [Teicoplanin], the efficacy was -14.5%.

On to `CCC[C@H](NC(=O)[C@@H]1[C@H]2CCC[C@H]2CN1C(=O)[C@@H](NC(=O)[C@@H](NC(=O)c1cnccn1)C1CCCCC1)C(C)(C)C)C(=O)C(=O)NC1CC1` [Telaprevir (VX-950)], for which the efficacy was -39.3%.

On to `CC[C@H]1OC(=O)[C@H](C)C(=O)[C@H](C)[C@@H](O[C@H]2O[C@H](C)C[C@H](N(C)C)[C@H]2O)[C@](C)(OC)C[C@@H](C)C(=O)[C@H](C)[C@H]2N(CCCCn3cnc(-c4cccnc4)c3)C(=O)O[C@]12C` [Telithromycin], for which the efficacy is -11.9%.

As for `CCCc1nc2c(C)cc(-c3nc4ccccc4n3C)cc2n1Cc1ccc(-c2ccccc2C(=O)O)cc1` [Telmisartan], the efficacy was -20.9%.

In the case of `CCOC(=O)[C@@H](N)Cc1ccc(-c2cc(O[C@H](c3ccc(Cl)cc3-n3ccc(C)n3)C(F)(F)F)nc(N)n2)cc1` [Telotristat Etiprate (LX 1606 Hippurate)], the efficacy is -95.9%.

As to `CCOC(=O)[C@H](CCc1ccccc1)N[C@H]1CS[C@H](c2cccs2)CN(CC(=O)O)C1=O.Cl` [Temocapril hydrochloride], the efficacy was 10.5%.

Take `CO[C@H]1C[C@@H]2CC[C@@H](C)[C@@](O)(O2)C(=O)C(=O)N2CCCC[C@H]2C(=O)O[C@H]([C@H](C)C[C@@H]2CC[C@@H](OC(=O)C(C)(CO)CO)[C@H](OC)C2)CC(=O)[C@H](C)/C=C(\C)[C@@H](O)[C@@H](OC)C(=O)[C@H](C)C[C@H](C)/C=C/C=C/C=C/1C` [Temsirolimus]: the efficacy was -13.9%.

On to `CC[C@H](NC1=C2[NH]C=NC2=NC=N1)/C3=C(/C(=O)C4=CC=CC=C4O3)C5=CC=CC(=C5)F` [Tenalisib], for which the efficacy is -39.1%.

On to `COc1ccc2[nH]c([S+]([O-])Cc3ncc(C)c(OC)c3C)nc2n1` (stereo not drawn) [Tenatoprazole], for which the efficacy was -10.8%.

On to `CN1\C(=C(\O)C2=C(C=CS2)[S+]1([O-])=O)C(=O)NC3=CC=CC=N3` [Tenoxicam], for which the efficacy was -10.7%.

Consider `C/C(O)=C(\C#N)C(=O)Nc1ccc(C(F)(F)F)cc1` [Teriflunomide], for which the efficacy was -52.2%.

Turning to `CCN(CC)CCOc1ccc(Cc2ccccc2)cc1` [Tesmilifene hydrochloride], the efficacy is -27%.

Turning to `C[C@]12CC[C@H]3[C@@H](CCC/4=C/C(=O)CC[C@]34C)[C@@H]1CC[C@@H]2OC(=O)CCC5CCCC5` [Testosterone cypionate], the efficacy is -12%.

Regarding `COc1cc2c(cc1OC)C1CC(=O)C(CC(C)C)CN1CC2` (stereo not drawn) [Tetrabenazine], the efficacy was -45.5%.

For `CN(C)[C@H]\1[C@@H]2C[C@H]3C(=C(O)\[C@]2(O)C(=O)\C(=C1O)C(N)=O)/C(=O)C4=C(O)C=CC=C4[C@@]3(C)O` [Tetracycline hydrochloride], the efficacy is 8.73%.

In the case of `O=C1NC(O)CCN1[C@@H]1O[C@H](CO)[C@@H](O)[C@H]1O` (stereo partly drawn) [Tetrahydrouridine], the efficacy is -11.8%.

Regarding `O=C1CCC(N2C(=O)c3ccccc3C2=O)C(=O)N1` (stereo not drawn) [Thalidomide], the efficacy is -16.7%.

As to `Cn1c(=O)c2[nH]cnc2n(C)c1=O` [Theophyllamine], the efficacy was -11.6%.

With `c1ccc2[nH]c(-c3cscn3)nc2c1` [Thiabendazole], the efficacy was -7.02%.

Turning to `S=P(N1CC1)(N1CC1)N1CC1` [ThioTEPA], the efficacy is -13.1%.

Regarding `Cc1ccsc1C(=CCCN1CCC[C@@H](C(=O)O)C1)c1sccc1C` [Tiagabine hydrochloride], the efficacy was -8.94%.

Regarding `Clc1ccccc1CN1CCc2sccc2C1` [Ticlopidine hydrochloride], the efficacy was -21.1%.

Regarding `O=c1sn(-c2cccc3ccccc23)c(=O)n1Cc1ccccc1` [Tideglusib], the efficacy is -7.08%.

With `CN(C)[C@H]\1[C@@H]2C[C@@H]\3CC4=C(C(=C(NC(=O)CNC(C)(C)C)C=C4N(C)C)O)C(=O)C3=C(O)/[C@@]2(O)C(=O)\C(=C1O)C(N)=O` [Tigecycline], the efficacy was -18.8%.

For the compound `O=c1oc2cc(O)ccc2s1` [Tioxolone], the efficacy is -6.66%.

With `O=C(O)C(=O)c1cn(Cc2ccccc2)c2ccc(-c3ccc(OC(F)(F)F)cc3)cc12` [Tiplasinin], the efficacy is -22.4%.

With `NC[C@H]1O[C@H](O[C@H]2[C@H](O)[C@@H](O[C@H]3O[C@H](CO)[C@@H](O)[C@H](N)[C@H]3O)[C@H](N)C[C@@H]2N)[C@H](N)C[C@@H]1O` [Tobramycin], the efficacy is -8.81%.

On to `Cc1ccc(C(=O)c2cc(O)c(O)c([N+](=O)[O-])c2)cc1` [Tolcapone], for which the efficacy is -83.1%.

In the case of `CC1=CC(=CC=C1)OC/2=C/NC(=O)/N=C2` [Tolimidone], the efficacy came to 6.41%.

As to `Cc1cccc(N(C)C(=S)Oc2ccc3ccccc3c2)c1` [Tolnaftate], the efficacy was -28.8%.

Take `Cc1ccc(O)c(C(CCN(C(C)C)C(C)C)c2ccccc2)c1.Cl` (stereo not drawn) [Tolterodine tartrate]: the efficacy is -19.8%.

With `Cc1ccccc1C(=O)Nc1ccc(C(=O)N2CCCC(O)c3cc(Cl)ccc32)c(C)c1` (stereo not drawn) [Tolvaptan], the efficacy was -64.3%.

In the case of `COc1ccc(/C=C/C(=O)Nc2ccccc2C(=O)O)cc1OC` [Tranilast], the efficacy is -8.29%.

For `N[C@@H]1C[C@H]1c1ccccc1` [Tranylcypromine], the efficacy was -9.58%.

Take `CC1=C(/C=C/C(C)=C/C=C/C(C)=C/C(=O)O)C(C)(C)CCC1` [Tretinoin]: the efficacy was -22.5%.

For the compound `NC(=S)N/N=C/c1ncccc1N` [Triapine], the efficacy was -21.4%.

Regarding `N[S+](=O)([O-])c1cc2c(cc1Cl)NC(C(Cl)Cl)N[S+]2(=O)[O-]` (stereo not drawn) [Trichlormethiazide], the efficacy is 6.79%.

As to `CC1=CC2=C(O1)C(=C3OC(=O)\C=C(C)/C3=C2)C` [Trioxsalen], the efficacy is -19.8%.

As for `O=C(CCCCCCC(=O)Nc1ccc([C@H]2O[C@@H](CSc3nc(-c4ccccc4)c(-c4ccccc4)o3)C[C@@H](c3ccc(CO)cc3)O2)cc1)NO` [Tubacin], the efficacy is -23.7%.

Consider `CC(C)OC(=O)/C1=C/N(CC(C)(C)C2=C1[NH]C3=CC=CC=C23)C(=O)C4=CC=C(F)C(=C4)F` [Turofexorate isopropyl], for which the efficacy is -17.9%.

On to `N#C/C(=C\c1ccc(O)c(O)c1)C(=O)NCc1ccccc1` [Tyrphostin B42], for which the efficacy is -71.9%.

Turning to `COc1cc2c(NC3CCN(C)CC3)nc(N3CCCN(C)CC3)nc2cc1OCCCN(C)C` [UNC-0224], the efficacy is -57.9%.

On to `O=C(c1ccc(C(=O)N2CCC(N3CCCC3)CC2)c(Nc2ccccc2)c1)N1CCC(N2CCCC2)CC1` [UNC-1215], for which the efficacy is -10.4%.

`CCCC\1=C(/CNC(=O)C2=CC(=CC3=C2C=N[N]3C(C)C)C4=CC=C(N=C4)N5CCN(CC5)C(C)C)C(=O)NC(=C1)\C` [UNC-1999]: the efficacy was -25.5%.

Turning to `CCN(CC)CCCC[C@H](NC(=O)[C@H](CC(C)C)NC(=O)[C@H](C)NC(=O)[C@H](Cc1ccccc1)NC(=O)c1ccc(C(C)(C)C)cc1)C(=O)N[C@@H](CO)C(=O)OC` [UNC-3866], the efficacy was -18.9%.

Regarding `OC[C@H]1O[C@H]([C@H](O)[C@@H]1O)N2\C=C/C(=O)NC2=O` [Uridine], the efficacy was -9.88%.

Regarding `C[C@@H]1CC[C@@]2(CC[C@]3(C)\C(=C/C[C@@H]4[C@@]5(C)CC[C@H](O)C(C)(C)[C@@H]5CC[C@@]34C)[C@@H]2[C@H]1C)C(O)=O` [Ursolic acid], the efficacy turned out to be 6.32%.

For `CC[C@H](NC(=O)[C@H](C[S+](=O)([O-])CC1CC1)N[C@@H](c1ccc(F)cc1)C(F)(F)F)C(=O)C(=O)NC1CC1` [VBY-825], the efficacy was -25.3%.

`C[S+](=O)([O-])c1ccc(-c2cnc(N)c(C(=O)Nc3ccccc3)n2)cc1` [VE-821]: the efficacy was -26.1%.

For `CC(C)(C)C#Cc1cc(N(C(=O)[C@H]2CC[C@H](C)CC2)[C@H]2CC[C@@H](O)CC2)c(C(=O)O)s1` [VX-222], the efficacy is -59.3%.

Consider `FC1=CC=C(SC/2=N/N3\C=N/C(=O)/C(=C3/C=C2)C4=C(Cl)C=CC=C4Cl)C(=C1)F` [VX-745], for which the efficacy is -34.7%.

Take `CCO[C@@H]1OC(=O)C[C@@H]1NC(=O)[C@@H]1CCCN1C(=O)[C@@H](NC(=O)c1ccc(N)c(Cl)c1)C(C)(C)C` [VX-765]: the efficacy was 23.5%.

As for `O=C(O)CNC(=O)c1ncc(-c2cccc(Cl)c2)cc1O` [Vadadustat], the efficacy was -15.6%.

Consider `CC(C)[C@H](N)C(=O)OCCOC[N]1C=NC2=C1\N=C(N)/NC2=O` [Valaciclovir], for which the efficacy stood at 8.42%.

Turning to `Cc1onc(-c2ccccc2)c1-c1ccc([S+](N)(=O)[O-])cc1` [Valdecoxib], the efficacy is -36.8%.

Regarding `CCCC(CCC)C(=O)[O-]` [Valproic acid sodium salt], the efficacy was determined as 14%.

As to `CN[C@H](CC(C)C)C(=O)N[C@H]1C(=O)N[C@@H](CC(N)=O)C(=O)N[C@H]2C(=O)N[C@H]3C(=O)N[C@H](C(=O)N[C@H](C(=O)O)c4cc(O)cc(O)c4-c4cc3ccc4O)[C@H](O)c3ccc(c(Cl)c3)Oc3cc2cc(c3O[C@@H]2O[C@H](CO)[C@@H](O)[C@H](O)[C@H]2O[C@H]2C[C@](C)(N)[C@H](O)[C@H](C)O2)Oc2ccc(cc2Cl)[C@H]1O` [Vancomycin hydrochloride], the efficacy was -27%.

`O=C(O)CC/C=C\CC[C@@H]1[C@@H](N2CCCCC2)[C@@H](O)C[C@@H]1OCc1ccc(-c2ccccc2)cc1` [Vapiprost hydrochloride]: the efficacy is -23.2%.
